Marks after values point to notes of the source that are not given here.
Columns and labels:
[1] = binding to N,N′-Ac2-L-Lys-D-Ala-D-Ala (3), ref 8a; cited from earlier work
VanA and VanB VRE = settings: cited from earlier work
[2] = reprogrammed precursor terminus D-Ala-D-Lac; cited from earlier work
[3] = Ligand binding, UV-difference titration; settings: binding to N,N′-Ac2-L-Lys-D-Ala-D-Ala (3)

Row | Structure (SMILES) | Association constant for 3, Ka (value in parentheses) [1] | Fold drop in antimicrobial activity against resistant strains (VanA and VanB VRE) [fold] | Fold decrease in antibiotic binding affinity (D-Ala-D-Lac vs D-Ala-D-Ala) [2] [fold] | Association constant for 3, Ka [3]
1 | CN[C@H](CC(C)C)C(=O)N[C@H]1C(=O)N[C@@H](CC(N)=O)C(=O)N[C@H]2C(=O)N[C@H]3C(=O)N[C@H](C(=O)N[C@H](C(=O)O)c4cc(O)cc(O)c4-c4cc3ccc4O)[C@H](O)c3ccc(c(Cl)c3)Oc3cc2cc(c3O[C@@H]2O[C@H](CO)[C@@H](O)[C@H](O)[C@H]2O[C@H]2C[C@](C)(N)[C@H](O)[C@H](C)O2)Oc2ccc(cc2Cl)[C@H]1O [Vancomycin (1), Vancomycin] | 2.3–3.9 M^−1 (× 10^5) | 1000 | 1000 | 1.8 M^−1 (× 10^5)
2 | CN[C@H](CC(C)C)C(=O)N[C@H]1C(=O)N[C@@H](CC(N)=O)C(=O)N[C@H]2C(=O)N[C@H]3C(=O)N[C@H](C(=O)N[C@H](C(=O)O)c4cc(O)cc(O)c4-c4cc3ccc4O)[C@H](O)c3ccc(c(Cl)c3)Oc3cc2cc(c3O)Oc2ccc(cc2Cl)[C@H]1O [Vancomycin Aglycon (2), Vancomycin Aglycon] |  |  |  | 1.4 M^−1 (× 10^5)
